Assay: Half life in human liver microsomes at 2 uM in presence of NADPH measured up to 40 mins

half-life at 40 min, 2 µM: 23 min
Compound: Fc1cc(Cl)c2[nH]cc(-c3ccc4ccccc4n3)c2c1

— ChEMBL document CHEMBL4825767, “Development of 2-(5,6,7-Trifluoro-1H-Indol-3-yl)-quinoline-5-carboxamide as a Potent, Selective, and Orally Available Inhibitor of Human Androgen Receptor Targeting Its Binding Function-3 for the Treatment of Castration-Resistant Prostate Cancer” (J Med Chem, 2021)
